Results reported in ChEMBL document CHEMBL3769388, “Optimization of a Dicarboxylic Series for in Vivo Inhibition of Citrate Transport by the Solute Carrier 13 (SLC13) Family” (J Med Chem, 2016).
pIC50: −log10 of the molar value. Values after ≈ are worked out from the molar mass of the structure shown. Active and inactive are the calls of the source. The rule behind the calls is not given here.

Tests used:
[1] = target: Na(+)/citrate cotransporter (Homo sapiens, UniProt Q86YT5); experiment: Inhibition of NaCT (unknown origin) expressed in HEK293 cells assessed as inhibition of [14C]citrate uptake by microbeta plate reader analysis; assay type: cell-based; conditions: read-out: IC50
[2] = target: T1, Solute carrier family 13 member 2 (Homo sapiens, UniProt Q13183); experiment: Inhibition of NaDC1 (unknown origin) expressed in HEK293 cells assessed as inhibition of [14C]citrate uptake by microbeta plate reader analysis; assay type: cell-based
T1 sequence (Q13183 whole entry): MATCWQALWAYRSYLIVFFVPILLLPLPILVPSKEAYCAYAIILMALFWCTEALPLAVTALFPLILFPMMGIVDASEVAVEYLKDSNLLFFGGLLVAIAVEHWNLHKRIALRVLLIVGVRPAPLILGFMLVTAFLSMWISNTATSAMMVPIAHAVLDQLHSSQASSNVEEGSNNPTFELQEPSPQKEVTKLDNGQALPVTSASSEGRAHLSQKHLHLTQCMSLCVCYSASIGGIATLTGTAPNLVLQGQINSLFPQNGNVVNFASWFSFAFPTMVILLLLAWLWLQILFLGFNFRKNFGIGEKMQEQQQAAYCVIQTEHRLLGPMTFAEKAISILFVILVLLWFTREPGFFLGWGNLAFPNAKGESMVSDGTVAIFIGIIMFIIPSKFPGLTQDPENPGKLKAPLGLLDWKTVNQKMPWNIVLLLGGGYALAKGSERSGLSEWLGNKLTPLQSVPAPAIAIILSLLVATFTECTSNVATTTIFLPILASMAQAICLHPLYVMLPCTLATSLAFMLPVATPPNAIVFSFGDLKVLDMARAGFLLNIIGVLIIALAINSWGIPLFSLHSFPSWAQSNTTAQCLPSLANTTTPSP

[3] = Clearance in human hepatocytes assessed per 10^6 cells; assay type: ADME, cell-based, Hepatocyte; conditions: read-out: CLH
[4] = target: Na(+)/citrate cotransporter (Mus musculus, UniProt Q67BT3); experiment: Inhibition of NaCT in mouse hepatocytes assessed as [14C]-citrate uptake after 30 mins by scintillation counting method; assay type: cell-based, Hepatocyte
[5] = target: Na(+)/citrate cotransporter (Rattus norvegicus, UniProt Q8CJ44); experiment: Inhibition of NaCT in rat hepatocytes assessed as [14C]-citrate uptake after 30 mins by scintillation counting method; assay type: cell-based, Hepatocyte
[6] = Clearance in mouse hepatocytes assessed per 10^6 cells; assay type: ADME, cell-based, Hepatocyte; conditions: read-out: CLH
Rattus norvegicus [7] = experiment: Decrease in [14C]citrate uptake in iv dosed Wistar Han rat testis measured after 185 to 200 mins by scintillation counting method; assay type: functional, organism-based
[8] = Half life in Wistar Han rat at 1 mg/kg, iv by LC-MS/MS analysis; assay type: ADME, organism-based; conditions: in vivo
[9] = AUC(0 to t) in Wistar Han rat at 5 mg/kg, po by LC-MS/MS analysis; assay type: ADME, organism-based; conditions: in vivo
Mus musculus [10] = experiment: Effect on glucose infusion rate in DIO C57/B6 mouse during hyperinsulinemic-euglycemic clamp at 44 mg/kg/hr for 90 mins; assay type: functional, organism-based
Rattus norvegicus [11] = species: Rattus norvegicus; experiment: Increase in [12C]-citrate levels in rat liver measured over 140 to 150 mins by UPLC-MS/MS analysis; assay type: functional, organism-based
[12] = target: Acetylcholinesterase (Homo sapiens) (UniProt P22303); experiment: Inhibition of ACHE (unknown origin)
[13] = target: ATP-citrate synthase (Homo sapiens) (UniProt P53396); experiment: Inhibition of ACL (unknown origin) upto 30 uM
[14] = target: Tyrosine-protein kinase Lck (Homo sapiens) (UniProt P06239); experiment: Inhibition of LCK (unknown origin)
[15] = target: Amine oxidase [flavin-containing] A (Homo sapiens, UniProt P21397); experiment: Inhibition of MAOA (unknown origin)
[16] = target: Mitogen-activated protein kinase 14 (Homo sapiens) (UniProt Q16539); experiment: Inhibition of MAPK14/P38-alpha (unknown origin)
[17] = target: cGMP-inhibited 3',5'-cyclic phosphodiesterase 3B (Homo sapiens) (UniProt Q13370); experiment: Inhibition of PDE3B (unknown origin)
[18] = target: 3',5'-cyclic-AMP phosphodiesterase 4D (Homo sapiens) (UniProt Q08499); experiment: Inhibition of PDE4D2 (unknown origin)
[19] = target: cGMP-specific 3',5'-cyclic phosphodiesterase (Homo sapiens) (UniProt O76074); experiment: Inhibition of PDE5A1 (unknown origin)
[20] = target: Proto-oncogene tyrosine-protein kinase Src (Homo sapiens) (UniProt P12931); experiment: Inhibition of SRC (unknown origin)
[21] = target: Sodium-dependent phosphate transport protein 3 (Homo sapiens) (UniProt O00624); experiment: Inhibition of NaPiA3 (unknown origin)
[22] = target: Sodium channel protein type 1 subunit alpha (Homo sapiens) (UniProt P35498); experiment: Inhibition of NaV1.1 (unknown origin)
[23] = target: Adenosine receptor A1 (Homo sapiens) (UniProt P30542); experiment: Inhibition of ADORA1 (unknown origin)
[24] = target: Alpha-2A adrenergic receptor (Homo sapiens) (UniProt P08913); experiment: Inhibition of ADRA2A (unknown origin)
[25] = target: Alpha-2B adrenergic receptor (Homo sapiens) (UniProt P18089); experiment: Inhibition of ADRA2B (unknown origin)
[26] = target: Gastrin/cholecystokinin type B receptor (Homo sapiens) (UniProt P32239); experiment: Inhibition of CCKBR (unknown origin)
[27] = target: Epidermal growth factor receptor (Homo sapiens) (UniProt P00533); experiment: Inhibition of EGFR (unknown origin)
[28] = target: Histamine H3 receptor (Homo sapiens) (UniProt Q9Y5N1); experiment: Inhibition of H3 (unknown origin)
[29] = target: Muscarinic acetylcholine receptor M2 (Homo sapiens) (UniProt P08172); experiment: Inhibition of M2 (unknown origin)
[30] = target: Substance-P receptor (Homo sapiens) (UniProt P25103); experiment: Inhibition of NK1 receptor (unknown origin)
[31] = target: Neuronal acetylcholine receptor; alpha4/beta2 (Homo sapiens) (UniProt P17787+P43681); experiment: Inhibition of alpha-4/beta-2 (unknown origin); assay type: protein-complex assay
[32] = target: Peroxisome proliferator-activated receptor gamma (Homo sapiens) (UniProt P37231); experiment: Inhibition of PPAR gamma (unknown origin)
[33] = target: 5-hydroxytryptamine receptor 1A (Homo sapiens) (UniProt P08908); experiment: Inhibition of 5HT1A (unknown origin)
[34] = target: 5-hydroxytryptamine receptor 1B (Homo sapiens) (UniProt P28222); experiment: Inhibition of 5HT1B (unknown origin)
[35] = target: 5-hydroxytryptamine receptor 2A (Homo sapiens) (UniProt P28223); experiment: Inhibition of 5HT2A receptor (unknown origin)
[36] = target: 5-hydroxytryptamine receptor 2B (Homo sapiens) (UniProt P41595); experiment: Inhibition of 5HT2B receptor (unknown origin)
[37] = target: Vascular endothelial growth factor receptor 2 (Homo sapiens) (UniProt P35968); experiment: Inhibition of VEGFR2 (unknown origin)
[38] = Thermodynamic solubility of compound in aqueous solution at pH 6.5; assay type: physicochemical; conditions: read-out: Therm_solubility
Mus musculus [39] = species: Mus musculus; experiment: Decrease in [14C]citrate uptake in DIO mouse liver during hyperinsulinemic-euglycemic clamp; assay type: functional, organism-based

5-hydroxytryptamine receptor 1A (Homo sapiens), sequence (P08908 whole entry): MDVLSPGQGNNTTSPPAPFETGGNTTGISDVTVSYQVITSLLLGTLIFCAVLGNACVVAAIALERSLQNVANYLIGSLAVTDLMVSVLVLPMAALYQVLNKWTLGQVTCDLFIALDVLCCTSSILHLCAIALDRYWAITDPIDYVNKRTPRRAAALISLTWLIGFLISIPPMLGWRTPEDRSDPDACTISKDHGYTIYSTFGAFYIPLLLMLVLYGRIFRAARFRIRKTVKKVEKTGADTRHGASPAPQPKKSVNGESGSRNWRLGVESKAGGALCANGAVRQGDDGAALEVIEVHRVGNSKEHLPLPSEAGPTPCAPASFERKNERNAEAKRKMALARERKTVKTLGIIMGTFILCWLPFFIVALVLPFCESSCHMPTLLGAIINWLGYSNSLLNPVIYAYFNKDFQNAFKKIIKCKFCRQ
Na(+)/citrate cotransporter (Mus musculus, UniProt Q67BT3), sequence (Q67BT3 whole entry): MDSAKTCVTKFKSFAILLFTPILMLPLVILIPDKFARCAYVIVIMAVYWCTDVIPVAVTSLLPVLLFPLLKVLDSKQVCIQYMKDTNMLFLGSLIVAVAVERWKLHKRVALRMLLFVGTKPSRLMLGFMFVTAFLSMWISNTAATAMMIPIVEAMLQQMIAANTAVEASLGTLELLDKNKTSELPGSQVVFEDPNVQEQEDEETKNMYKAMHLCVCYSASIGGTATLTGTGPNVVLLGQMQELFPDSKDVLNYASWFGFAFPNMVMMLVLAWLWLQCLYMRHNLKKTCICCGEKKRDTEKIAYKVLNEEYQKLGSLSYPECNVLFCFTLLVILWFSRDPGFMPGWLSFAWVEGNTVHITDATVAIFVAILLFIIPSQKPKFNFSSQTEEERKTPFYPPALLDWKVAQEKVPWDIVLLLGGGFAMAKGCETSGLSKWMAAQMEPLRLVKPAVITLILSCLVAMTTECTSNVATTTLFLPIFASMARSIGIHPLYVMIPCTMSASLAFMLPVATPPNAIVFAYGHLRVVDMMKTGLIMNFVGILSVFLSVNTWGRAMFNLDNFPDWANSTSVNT
5-hydroxytryptamine receptor 2A (Homo sapiens), sequence (P28223 whole entry): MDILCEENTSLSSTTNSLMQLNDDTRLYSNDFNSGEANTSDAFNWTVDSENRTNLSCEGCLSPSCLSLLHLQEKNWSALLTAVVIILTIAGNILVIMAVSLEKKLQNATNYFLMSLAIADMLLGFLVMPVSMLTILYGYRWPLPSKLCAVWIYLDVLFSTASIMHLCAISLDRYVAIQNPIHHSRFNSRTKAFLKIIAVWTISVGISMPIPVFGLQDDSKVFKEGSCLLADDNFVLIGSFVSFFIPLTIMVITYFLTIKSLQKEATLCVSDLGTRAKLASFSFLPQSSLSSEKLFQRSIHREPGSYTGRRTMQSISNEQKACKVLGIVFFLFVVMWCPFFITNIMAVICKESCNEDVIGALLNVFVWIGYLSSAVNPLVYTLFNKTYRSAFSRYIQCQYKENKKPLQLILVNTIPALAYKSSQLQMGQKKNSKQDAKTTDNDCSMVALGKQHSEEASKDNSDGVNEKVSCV
Acetylcholinesterase (Homo sapiens), sequence (P22303 whole entry): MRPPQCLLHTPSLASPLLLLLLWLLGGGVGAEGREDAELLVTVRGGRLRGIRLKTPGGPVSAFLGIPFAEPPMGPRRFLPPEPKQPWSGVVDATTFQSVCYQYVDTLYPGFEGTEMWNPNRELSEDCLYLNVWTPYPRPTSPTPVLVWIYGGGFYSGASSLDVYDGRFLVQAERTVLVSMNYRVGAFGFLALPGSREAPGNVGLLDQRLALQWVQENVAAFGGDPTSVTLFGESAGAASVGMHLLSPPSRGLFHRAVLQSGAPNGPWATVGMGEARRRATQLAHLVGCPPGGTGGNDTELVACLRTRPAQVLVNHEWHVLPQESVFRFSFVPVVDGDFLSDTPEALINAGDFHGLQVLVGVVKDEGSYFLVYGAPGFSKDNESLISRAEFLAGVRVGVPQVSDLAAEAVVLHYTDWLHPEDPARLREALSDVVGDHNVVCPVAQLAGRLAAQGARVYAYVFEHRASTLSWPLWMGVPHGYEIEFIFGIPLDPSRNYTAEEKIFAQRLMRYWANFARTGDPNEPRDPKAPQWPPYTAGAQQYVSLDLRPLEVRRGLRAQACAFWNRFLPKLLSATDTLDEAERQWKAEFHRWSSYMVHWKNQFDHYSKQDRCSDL
cGMP-inhibited 3',5'-cyclic phosphodiesterase 3B (Homo sapiens), sequence (Q13370 whole entry, looked up): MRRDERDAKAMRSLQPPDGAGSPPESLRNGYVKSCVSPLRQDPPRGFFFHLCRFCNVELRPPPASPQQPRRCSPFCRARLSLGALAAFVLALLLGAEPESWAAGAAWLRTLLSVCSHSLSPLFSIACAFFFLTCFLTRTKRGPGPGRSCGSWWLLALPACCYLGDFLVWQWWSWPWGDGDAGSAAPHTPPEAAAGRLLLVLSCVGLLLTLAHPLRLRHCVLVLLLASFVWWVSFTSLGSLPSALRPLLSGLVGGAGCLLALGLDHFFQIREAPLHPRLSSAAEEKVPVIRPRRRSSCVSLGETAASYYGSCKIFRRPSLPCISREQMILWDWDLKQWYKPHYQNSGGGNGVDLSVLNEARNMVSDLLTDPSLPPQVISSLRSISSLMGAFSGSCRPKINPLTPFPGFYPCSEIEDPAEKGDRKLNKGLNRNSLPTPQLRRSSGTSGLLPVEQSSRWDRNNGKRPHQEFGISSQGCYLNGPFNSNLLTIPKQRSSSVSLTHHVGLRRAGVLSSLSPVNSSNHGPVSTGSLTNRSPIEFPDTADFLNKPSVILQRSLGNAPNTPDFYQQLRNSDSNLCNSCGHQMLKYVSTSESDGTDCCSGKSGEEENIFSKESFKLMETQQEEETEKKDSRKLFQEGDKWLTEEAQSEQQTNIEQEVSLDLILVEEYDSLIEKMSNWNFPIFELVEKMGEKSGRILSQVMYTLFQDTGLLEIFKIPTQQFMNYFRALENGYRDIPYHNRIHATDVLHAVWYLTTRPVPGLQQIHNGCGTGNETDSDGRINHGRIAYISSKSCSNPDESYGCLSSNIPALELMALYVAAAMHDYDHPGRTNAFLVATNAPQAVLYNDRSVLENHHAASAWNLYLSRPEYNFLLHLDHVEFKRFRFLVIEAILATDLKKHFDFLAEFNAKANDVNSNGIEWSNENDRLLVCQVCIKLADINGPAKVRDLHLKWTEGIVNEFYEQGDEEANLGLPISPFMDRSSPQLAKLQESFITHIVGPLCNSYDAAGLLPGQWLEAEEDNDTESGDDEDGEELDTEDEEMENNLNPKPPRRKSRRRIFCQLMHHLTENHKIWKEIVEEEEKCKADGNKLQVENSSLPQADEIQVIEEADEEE
Adenosine receptor A1 (Homo sapiens), sequence (P30542 whole entry): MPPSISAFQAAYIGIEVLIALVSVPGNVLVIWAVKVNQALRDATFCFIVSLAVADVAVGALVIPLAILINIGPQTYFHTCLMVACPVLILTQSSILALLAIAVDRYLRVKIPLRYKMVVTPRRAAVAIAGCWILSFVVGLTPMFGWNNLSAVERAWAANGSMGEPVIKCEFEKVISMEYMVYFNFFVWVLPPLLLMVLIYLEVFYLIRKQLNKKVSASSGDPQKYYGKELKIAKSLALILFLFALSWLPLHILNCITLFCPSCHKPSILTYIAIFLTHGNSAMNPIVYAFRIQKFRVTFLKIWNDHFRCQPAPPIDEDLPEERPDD
3',5'-cyclic-AMP phosphodiesterase 4D (Homo sapiens), sequence (Q08499 whole entry): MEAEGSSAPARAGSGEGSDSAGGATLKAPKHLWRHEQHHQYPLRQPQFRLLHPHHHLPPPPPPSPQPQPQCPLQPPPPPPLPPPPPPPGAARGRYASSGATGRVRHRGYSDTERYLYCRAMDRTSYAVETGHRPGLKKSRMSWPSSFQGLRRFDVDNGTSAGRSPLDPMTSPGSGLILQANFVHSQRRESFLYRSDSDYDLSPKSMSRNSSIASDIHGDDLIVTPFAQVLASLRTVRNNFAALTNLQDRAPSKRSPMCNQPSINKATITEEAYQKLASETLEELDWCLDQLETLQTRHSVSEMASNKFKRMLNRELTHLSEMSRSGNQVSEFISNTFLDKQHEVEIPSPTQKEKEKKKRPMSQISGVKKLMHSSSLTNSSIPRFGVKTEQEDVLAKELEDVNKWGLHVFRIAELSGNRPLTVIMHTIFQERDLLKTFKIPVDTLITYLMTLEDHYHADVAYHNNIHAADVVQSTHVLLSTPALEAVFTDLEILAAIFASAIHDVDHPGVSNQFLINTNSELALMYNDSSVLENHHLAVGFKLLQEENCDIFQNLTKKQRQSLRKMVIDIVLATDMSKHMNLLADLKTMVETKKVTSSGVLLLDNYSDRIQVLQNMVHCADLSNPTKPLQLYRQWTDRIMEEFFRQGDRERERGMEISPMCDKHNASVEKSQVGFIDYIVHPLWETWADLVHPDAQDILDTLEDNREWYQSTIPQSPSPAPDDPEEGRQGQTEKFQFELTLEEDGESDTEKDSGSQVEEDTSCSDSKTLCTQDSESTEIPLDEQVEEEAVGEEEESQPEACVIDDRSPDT
Peroxisome proliferator-activated receptor gamma (Homo sapiens), sequence (P37231 whole entry): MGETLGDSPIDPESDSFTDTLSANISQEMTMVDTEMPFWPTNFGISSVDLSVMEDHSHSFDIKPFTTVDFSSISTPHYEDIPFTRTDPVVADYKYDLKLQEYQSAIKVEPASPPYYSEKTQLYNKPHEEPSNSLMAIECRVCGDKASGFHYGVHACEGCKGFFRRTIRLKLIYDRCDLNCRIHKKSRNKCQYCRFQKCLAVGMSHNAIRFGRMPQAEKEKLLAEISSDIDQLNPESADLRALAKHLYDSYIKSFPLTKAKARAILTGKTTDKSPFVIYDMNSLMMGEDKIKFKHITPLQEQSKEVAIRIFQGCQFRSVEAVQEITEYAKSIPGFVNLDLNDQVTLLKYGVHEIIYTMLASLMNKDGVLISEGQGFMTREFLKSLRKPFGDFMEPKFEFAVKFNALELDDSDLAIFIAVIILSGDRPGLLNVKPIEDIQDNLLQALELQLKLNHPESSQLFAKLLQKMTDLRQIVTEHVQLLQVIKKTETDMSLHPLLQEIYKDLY

`COc1ncc(C)cc1CC[C@@](O)(CC(=O)O)C(=O)O` gave a pIC50 [1] of 6.29, a pIC50 ([2]; read-out: IC50) of 4.88 and an IC50 ([2]; read-out: pIC50 (converted)) of 10 µM. For the same compound, the hepatocyte CLint [3] was 7 µL/min/1e6 cells, the pIC50 [4] was 6.68 and the pIC50 [5] was 6.92. The hepatocyte CLint [6] was under 6 µL/min/1e6 cells, the pIC50 (Rattus norvegicus [7]) was 6.00 and the half-life [8] was 1.7 h. For the same compound, the AUC(0-t) [9] was 4.89 µg·h/mL, the Activity (Mus musculus [10]) was “inactive” and the Activity (Rattus norvegicus [11]) was “Active”. The inhibition [12] was “inactive”, the inhibition [13] was “inactive” and the inhibition [14] was “inactive”. The “inhibition (INH)” value [15] was “Not Active”, the inhibition [16] was “inactive” and the inhibition [17] was “inactive”. The inhibition [18] was “inactive”, the inhibition [19] was “inactive” and the inhibition [20] was “inactive”. The inhibition [21] was “inactive”, the inhibition [22] was “inactive” and the inhibition [23] was “inactive”. For the same compound, the inhibition [24] was “inactive”, the inhibition [25] was “inactive” and the inhibition [26] was “inactive”. The inhibition [27] was “inactive”, the inhibition [28] was “inactive” and the inhibition [29] was “inactive”. For the same compound, the inhibition [30] was “inactive”, the inhibition [31] was “inactive” and the inhibition [32] was “inactive”. For the same compound, the inhibition [33] was “inactive”, the inhibition [34] was “inactive” and the inhibition [35] was “inactive”. For the same compound, the inhibition [36] was “inactive”, the inhibition [37] was “inactive” and the solubility thermodynamic [38] was 24 µM (≈ 6.8 µg/mL). For the same compound, the inhibition (Mus musculus [39]) was “Active”.
